Reference: PubChem BioAssay AID2086 (NMMLSC, 2009)
The source made the active and inactive calls. No rule for the calls is given here.

biological target: Induced myeloid leukemia cell differentiation protein Mcl-1 (Homo sapiens) (UniProt Q07820); assay: regulators of Bim-Mcl-1 interaction, confirmation, biochemical, bead-based flow cytometry, multiplex, HTS hits (AID 2086); conditions: not given
Sequence (Q07820 whole entry, looked up): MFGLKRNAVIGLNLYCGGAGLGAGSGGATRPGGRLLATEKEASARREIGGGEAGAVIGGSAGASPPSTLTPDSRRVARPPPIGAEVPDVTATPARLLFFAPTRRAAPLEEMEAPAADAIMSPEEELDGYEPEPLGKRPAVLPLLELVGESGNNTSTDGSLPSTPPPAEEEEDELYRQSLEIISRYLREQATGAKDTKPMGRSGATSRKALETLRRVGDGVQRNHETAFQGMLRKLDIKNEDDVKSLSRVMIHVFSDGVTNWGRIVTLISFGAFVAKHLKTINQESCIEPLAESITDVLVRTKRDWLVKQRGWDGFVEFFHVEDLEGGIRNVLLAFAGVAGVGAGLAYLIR

SMILES	EC50
COc1ccc(N2C(=O)C(Cl)=C(NC3C(=O)N(c4ccccc4)N(C)C3C)C2=O)cc1 (stereo unspecified)	inactive

same assay, conditions: at 100 µM (top of the series)

SMILES	response, inhibition or activation
Cc1nnc(Sc2cc(NCCO)c([N+](=O)[O-])c3nonc23)s1	inactive
O=C1NC(=O)C(=Cc2ccc(-c3cc(Cl)ccc3[N+](=O)[O-])o2)C(=O)N1	inactive
O=C1c2ccccc2C(=O)N1CN(C(=O)COc1ccc(Cl)cc1Cl)c1cccc(F)c1	inactive
O=[N+]([O-])c1c(NCCCO)cc(Sc2nc3ccccc3s2)c2nonc12	inactive
CCN(CC)c1ccc(NC(=O)c2ccccc2F)cc1S(=O)(=O)Nc1ccccc1OC	inactive
Cc1ccc(-c2cc(C(=O)Nc3nccs3)c3ccccc3n2)o1	inactive
CCN1C(=O)/C(=C\C=C2/C=CC=CN2CC)SC1=S	inactive
O=C1/C(=C\c2ccco2)NC(=S)N1c1ccccc1	inactive
S=c1[nH]cc(-c2ccccc2)n1-c1ccccc1	inactive
COc1cc(CNc2ccc3[nH]c(=O)[nH]c3c2)cc(Br)c1OCC(=O)NC(C)(C)C	inactive
CN(CCO)c1cc(Sc2nc3ccccc3s2)c2nonc2c1[N+](=O)[O-]	inactive
Clc1nc(NCc2cccnc2)nc(N2CCOCC2)n1	inactive
Oc1ccc(NCc2ccccc2OCc2ccccc2)cc1	inactive
CNC(CC(=O)c1ccc([N+](=O)[O-])cc1)C(Cl)(Cl)Cl (stereo unspecified)	inactive
Cc1ccc(-c2cc(-c3ccc(F)cc3)c(C#N)c(N)n2)o1	inactive
O=C(Nc1nnc(COc2ccc(Cl)cc2)s1)c1ccco1	inactive
COc1ccccc1NC1=C(NC(C)=O)C(=O)c2ccccc2C1=O	inactive
CCN(CC)c1ccc(NC(=O)COc2ccccc2C)cc1S(=O)(=O)Nc1ccccc1OC	inactive
O=C1C(Cl)=C(N2CCN(c3ccccc3[N+](=O)[O-])CC2)C(=O)c2ccccc21	inactive
Cc1cc(-c2cc(-c3ccc(Cl)cc3)nc(N)c2C#N)co1	inactive
CC(=O)OCCCNc1cc(Sc2nc3ccccc3s2)c2nonc2c1[N+](=O)[O-]	inactive
CCN(CC)C(=O)COC(=O)c1cc(-c2ccco2)nc2ccccc12	inactive
O=c1c2c(n3nnnc3n1Cc1ccccc1)-c1ccccc1CC21CCCC1	inactive
CCN(CC)c1ccc(NC(=O)c2ccccc2Br)cc1S(=O)(=O)Nc1ccccc1OC	inactive
O=C(/C=C/c1ccc(-c2ccccc2[N+](=O)[O-])o1)c1ccccc1	inactive
Cc1ccc(-c2cc(-c3ccc(C)o3)nc(N)c2C#N)cc1	inactive
COc1ccccc1-n1c(-c2ccccc2)c[nH]c1=S	inactive
C=CS(=O)(=O)c1sc(Cl)c(N2CCOCC2)c1[N+](=O)[O-]	inactive
CCOc1ccccc1CNc1ccc(O)cc1	inactive
CC(=O)Nc1ccc(-n2cc(-c3ccccc3)[nH]c2=S)cc1	inactive
